Assay results from US20250136579A1, “SALTS AND FREE BASES OF BIFUNCTIONAL COMPOUND AND POLYMORPH FORMS THEREOF” (NURIX THERAPEUTICS, INC., priority 2023, published 2025).
Where a name gives a salt, the structure may show the parent alone.

Assays:
Format in all cases: physicochemical
[1] = storage under ambient conditions (15° C. to 30° C.), form conversion; conditions: temperature of from 15° C. to 30° C.
Procedure: For Free Base Form E, Free Base Form F, Free Base Form G, Free Base Form H, and Free Base Form J: two different instruments were used for characterizing the materials by XRPD. Samples were analysed dry with a Malvern Panalytical Xpert Pro diffractometer, except for Free Base Form F. Free Base Form F was analysed using a Malvern Panalytical Empyrean diffractometer.
Napsylate Salt Form C was analysed by XRPD.

[2] = heat stress on a TGA, recovered material analyzed by XRPD; conditions: held ~1 minute
Procedure: Samples of each form were heat stressed on a TGA. Samples were heated to the specified temperature and held at that temperature for approximately 1 minute. The material was then recovered from the TGA and analyzed by XRPD.

[3] = stressing at 40° C./75% relative humidity (stability study, XRPD); conditions: 7 days

Q: For `CN1CCN([C@@H]2CCCN(c3cnc(C(N)=O)c(Nc4ccc(C5CCN(CC6CCN(c7ccc(C(=O)N[C@H]8CCC(=O)NC8=O)nc7)CC6)CC5)cc4)n3)C2)C1=O` [Napsylate Salt Form B], which “physical stability to ambient conditions” value [1] is on record?
A: conversion to Napsylate Salt Form C

Q: For `CN1CCN([C@@H]2CCCN(c3cnc(C(N)=O)c(Nc4ccc(C5CCN(CC6CCN(c7ccc(C(=O)N[C@H]8CCC(=O)NC8=O)nc7)CC6)CC5)cc4)n3)C2)C1=O` [Free Base Form C], which “Post-XRPD (150° C.)” value ([2]; heated on TGA to 150° C., listed as C) is on record?
A: Free Base Form C

Q: For `CN1CCN([C@@H]2CCCN(c3cnc(C(N)=O)c(Nc4ccc(C5CCN(CC6CCN(c7ccc(C(=O)N[C@H]8CCC(=O)NC8=O)nc7)CC6)CC5)cc4)n3)C2)C1=O` [Free Base Form A], which “Post-XRPD (100° C.)” value ([2]; heated on TGA to 100° C., listed as A) is on record?
A: Free Base Form A

Q: With `CN1CCN([C@@H]2CCCN(c3cnc(C(N)=O)c(Nc4ccc(C5CCN(CC6CCN(c7ccc(C(=O)N[C@H]8CCC(=O)NC8=O)nc7)CC6)CC5)cc4)n3)C2)C1=O` [Free Base Form H] as the molecule, how does the “physical stability to stressing at 40° C./75% relative humidity (RH)” value [3] read?
A: physically stable

Q: With `CN1CCN([C@@H]2CCCN(c3cnc(C(N)=O)c(Nc4ccc(C5CCN(CC6CCN(c7ccc(C(=O)N[C@H]8CCC(=O)NC8=O)nc7)CC6)CC5)cc4)n3)C2)C1=O` [Free Base Form G] as the molecule, how does the “physical stability to stressing at 40° C./75% relative humidity (RH)” value [3] read?
A: not physically stable

Q: Which “physical stability to stressing at 40° C./75% relative humidity (RH)” value [3] does the source give for `CN1CCN([C@@H]2CCCN(c3cnc(C(N)=O)c(Nc4ccc(C5CCN(CC6CCN(c7ccc(C(=O)N[C@H]8CCC(=O)NC8=O)nc7)CC6)CC5)cc4)n3)C2)C1=O` [Free Base Form J] here?
A: physically stable
